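Grown in 96-well plates, cells were treated for 48 hours with each compound at five concentrations. Insufficient inhibition: endpoint recorded as highest concentration tested. GI50: concentration for 50% inhibition of growth.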 Calls of active or inactive are those of the source. Cut-off read from the data, not from the text of the source: active = GI50 up to about 1.1 µM and inactive = higher.

Test systems include ACHN; CAKI-1; CCRF-CEM; COLO 205; IGROV-1; KM12; Malme-3M; OVCAR-4; OVCAR-5; SF-268; SF-295; SK-MEL-2; SW-620; U-251; UACC-257; MOLT-4.
Assay in all cases: inhibition of tumour cell growth, NCI panel, 48 h

For `Cc1ccc(NC(=O)C(=O)CC(=O)C2CCOC2=O)c(C)c1` (stereo not given), the GI50 in the experiment on ACHN, in the experiment with CAKI-1, in the experiment on CCRF-CEM, in the experiment on COLO 205, in the experiment with IGROV-1 and with KM12 was > 100 µM (inactive) in each case. Moreover, the GI50 in the experiment on Malme-3M, in the experiment on OVCAR-4, in the experiment with OVCAR-5, with SF-268, with SF-295 and in the experiment with SK-MEL-2 was > 100 µM (inactive) in each case. For the same molecule, the GI50 with SW-620, with U-251 and in the experiment on UACC-257 was > 100 µM (inactive) throughout.

In the case of `COc1cc(/C=C\c2ccc(Cl)cc2)cc(OC)c1OC`, the GI50 with ACHN is 1.38 µM (inactive); with CAKI-1, 0.384 µM (active); in the experiment on CCRF-CEM, 0.0964 µM (active); with COLO 205, 0.443 µM (active); in the experiment on IGROV-1, 1.08 µM (active); with KM12, 0.173 µM (active). Further, the GI50 in the experiment with MOLT-4 is 0.0762 µM (active); with Malme-3M, 0.184 µM (active); in the experiment with OVCAR-4, 5.74 µM (inactive); in the experiment on OVCAR-5, 26.3 µM (inactive); in the experiment with SF-268 it was 0.843 µM (active); in the experiment with SF-295, 0.0331 µM (active). Further, the GI50 was 0.245 µM (active) in the experiment with SK-MEL-2, 0.0552 µM (active) with SW-620, 0.231 µM (active) with U-251 and 0.804 µM (active) in the experiment on UACC-257.

With `FC(F)(F)c1cccc(C2SCc3nc4ccccc4n32)c1` (stereo not given), the GI50 with ACHN is 64 µM (inactive); in the experiment on CAKI-1, 55.2 µM (inactive); in the experiment with CCRF-CEM it was 32.8 µM (inactive); in the experiment on COLO 205, > 100 µM (inactive); in the experiment on IGROV-1, 33.7 µM (inactive); in the experiment on KM12 it was 68.4 µM (inactive). Moreover, the GI50 was 41.4 µM (inactive) with MOLT-4; > 100 µM (inactive) with Malme-3M; 6.32 µM (inactive) in the experiment on OVCAR-5; 90.6 µM (inactive) in the experiment on SF-268; 33.9 µM (inactive) in the experiment with SF-295; > 100 µM (inactive) in the experiment on SK-MEL-2. The GI50 in the experiment on SW-620 was > 100 µM (inactive); with U-251, 62.7 µM (inactive); with UACC-257, 4.54 µM (inactive).

Consider `COC1=C(C)C(=O)C2C(C1=O)C(c1ccc(OC)c(OC)c1)[C@H]2C` (stereo not given in full), for which the GI50 in the experiment on ACHN, in the experiment with CAKI-1, with CCRF-CEM, with COLO 205, with IGROV-1 and in the experiment on KM12 was > 100 µM (inactive) in each case. Also, the GI50 in the experiment on MOLT-4, with Malme-3M, in the experiment with OVCAR-4, with OVCAR-5, in the experiment on SF-268 and with SF-295 was > 100 µM (inactive) in each case. Also, the GI50 in the experiment with SK-MEL-2, with SW-620 and with U-251 was > 100 µM (inactive) in each case.

In the case of `CCCCCC(O)(CCCCC)CCCCCCCCC1=C(O)C(=O)c2ccc(=O)[nH]c2C1=O`, the GI50 in the experiment with ACHN was 6.37 µM (inactive); in the experiment on CAKI-1, 11.2 µM (inactive); with CCRF-CEM, 5.62 µM (inactive); in the experiment with COLO 205 it was 17.9 µM (inactive); in the experiment on IGROV-1, 5.53 µM (inactive); with KM12, 11 µM (inactive). The GI50 in the experiment on MOLT-4 is 6.3 µM (inactive); with Malme-3M, 3.75 µM (inactive); in the experiment on OVCAR-4, 1.87 µM (inactive); in the experiment on OVCAR-5, 20.3 µM (inactive); in the experiment on SF-268, 5.02 µM (inactive); in the experiment with SF-295, 4.37 µM (inactive). Also, the GI50 in the experiment on SK-MEL-2 is 3.06 µM (inactive); in the experiment with SW-620 it was 8 µM (inactive); in the experiment on U-251, 4.72 µM (inactive); in the experiment with UACC-257, 3.64 µM (inactive).

As for `C=C1C2CC(OC(C)=O)C3(C)C(c4ccoc4)OC(=O)[C@@H](O)[C@]13OC1C[C@H](OC(C)=O)C(C)(C)[C@H](C(O)C(=O)OC)[C@]12C` (stereo not given in full), the GI50 with ACHN, in the experiment on CCRF-CEM, with COLO 205, with IGROV-1, with KM12 and with MOLT-4 was > 100 µM (inactive) in each case. Further, the GI50 with OVCAR-4, in the experiment on SF-295, with SK-MEL-2, in the experiment with SW-620 and in the experiment on U-251 was > 100 µM (inactive) in each case.

For the molecule `Clc1cccc2c1OCC1C(c3ccccc3)=NN(c3ccccc3)C21` (stereo not given), the GI50 in the experiment on ACHN was 55.5 µM (inactive); in the experiment with CCRF-CEM, 32.2 µM (inactive); with COLO 205 it was > 100 µM (inactive); with IGROV-1 it was > 100 µM (inactive); in the experiment on KM12, 87.1 µM (inactive); in the experiment on MOLT-4, 35.2 µM (inactive). Further, the GI50 is > 100 µM (inactive) in the experiment with Malme-3M; > 100 µM (inactive) in the experiment on OVCAR-5; 63.2 µM (inactive) in the experiment on SF-268; 72.1 µM (inactive) in the experiment on SF-295; > 100 µM (inactive) in the experiment on SK-MEL-2; > 100 µM (inactive) with SW-620. The GI50 in the experiment with U-251 is 38.9 µM (inactive); with UACC-257, 67.3 µM (inactive).

Regarding `C/C(=C1/N=C(c2cc([N+](=O)[O-])ccc2Cl)N(c2ccc(Br)cc2)C1=O)c1ccc(N(CCC#N)CCC#N)cc1C`, the GI50 was 31.5 µM (inactive) in the experiment on ACHN; 52.4 µM (inactive) in the experiment on CAKI-1; 12.3 µM (inactive) in the experiment with CCRF-CEM; 32.2 µM (inactive) in the experiment with COLO 205; 28.4 µM (inactive) with IGROV-1; 15.1 µM (inactive) in the experiment on KM12. Also, the GI50 with MOLT-4 is 9.62 µM (inactive); in the experiment with Malme-3M, 77.8 µM (inactive); in the experiment on OVCAR-4, 38.8 µM (inactive); in the experiment on OVCAR-5, 50.9 µM (inactive); with SF-268, 61.7 µM (inactive); in the experiment with SF-295 it was 79.3 µM (inactive). The GI50 is 21.8 µM (inactive) with SK-MEL-2, 12.7 µM (inactive) with SW-620 and 57.5 µM (inactive) with UACC-257.

Turning to `O=C(c1ccncc1)n1nc(-c2ccccc2)c(/N=N/c2ccccc2[N+](=O)[O-])c1-c1ccccc1`, the GI50 in the experiment on CAKI-1 is 63.8 µM (inactive); in the experiment with CCRF-CEM, 59.3 µM (inactive); in the experiment with COLO 205 it was > 100 µM (inactive); in the experiment with IGROV-1, 73.8 µM (inactive); in the experiment with KM12, 19.3 µM (inactive); with MOLT-4 it was 38.9 µM (inactive). Moreover, the GI50 in the experiment on Malme-3M is > 100 µM (inactive); in the experiment on OVCAR-4 it was > 100 µM (inactive); in the experiment with SF-268, 82 µM (inactive); with SF-295 it was 32.1 µM (inactive); in the experiment on SK-MEL-2, > 100 µM (inactive); in the experiment on SW-620 it was 67.3 µM (inactive). Further, the GI50 with UACC-257 was 40.8 µM (inactive).

With `C/C(CC(=O)Nc1cc(C)ccc1C)=N\NC(=O)c1ccncc1`, the GI50 in the experiment with CCRF-CEM, with COLO 205, with IGROV-1, with KM12, with MOLT-4 and in the experiment on Malme-3M was > 100 µM (inactive) throughout. Also, the GI50 in the experiment with OVCAR-5, in the experiment on SF-268, in the experiment on SF-295, in the experiment on SK-MEL-2, in the experiment with SW-620 and with U-251 was > 100 µM (inactive) in each case. For the same molecule, the GI50 in the experiment with UACC-257 was > 100 µM (inactive).

For `COc1ccc(-c2cc(O)c3ccc(F)cc3n2)cc1`, the GI50 was > 100 µM (inactive) in the experiment on ACHN; > 100 µM (inactive) with CCRF-CEM; > 100 µM (inactive) in the experiment with COLO 205; > 100 µM (inactive) in the experiment on IGROV-1; 77.4 µM (inactive) in the experiment on KM12; > 100 µM (inactive) in the experiment with MOLT-4. In addition, the GI50 with Malme-3M is > 100 µM (inactive); in the experiment with OVCAR-4 it was > 100 µM (inactive); in the experiment on OVCAR-5 it was > 100 µM (inactive); with SF-268, 23.5 µM (inactive); in the experiment with SF-295 it was > 100 µM (inactive); with SW-620, > 100 µM (inactive). Also, in the experiment with UACC-257, the GI50 is > 100 µM (inactive).

For `COc1cc2c(cc1OC(=O)CC(C)O)C1C(OC2=O)C(OC(C)=O)C=C2CCN(C)[C@H]21` (stereo not given in full), the GI50 with ACHN is 18 µM (inactive); with CAKI-1 it was 71.1 µM (inactive); with CCRF-CEM, > 100 µM (inactive); in the experiment on COLO 205 it was 81.3 µM (inactive); with IGROV-1 it was 21.5 µM (inactive); with KM12, > 100 µM (inactive). Also, the GI50 was 47.2 µM (inactive) with MOLT-4; 40.5 µM (inactive) in the experiment with OVCAR-4; > 100 µM (inactive) in the experiment on OVCAR-5; 46.3 µM (inactive) in the experiment on SF-268; 20.7 µM (inactive) with SF-295; 15.9 µM (inactive) with SK-MEL-2. Further, the figures for the GI50 in the experiment on SW-620, in the experiment on U-251 and with UACC-257 were > 100 µM (inactive), 24.2 µM (inactive) and > 100 µM (inactive), respectively.

With `COc1cc(C(O)C(=O)c2cnc3cc([N+](=O)[O-])ccc3n2)ccc1O` (stereo not given), the GI50 with ACHN, in the experiment with CAKI-1, with CCRF-CEM, with COLO 205, in the experiment on IGROV-1 and with KM12 was > 100 µM (inactive) in each case. The GI50 in the experiment with MOLT-4, in the experiment with Malme-3M, with OVCAR-4, in the experiment with SF-295, in the experiment on SK-MEL-2 and in the experiment with SW-620 was > 100 µM (inactive) in each case. Further, the GI50 with U-251 and with UACC-257 was > 100 µM (inactive) each time.

For the origin of these results see ChEMBL document CHEMBL1201862, “PubChem BioAssay data set” (2004).
